What was measured:
[1] = pKa measurements of individual IAJD molecules by titration; type: physicochemical; conditions: ethanol saturated with NaCl, titrated with 0.1 M aqueous HCl, titration
Outline: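 pKa derived by half-equivalence-point analysis of a pH-meter titration curve: 0.1 M HCl added in 7.5 μL increments to a 1.5 mg/mL solution of each molecule in ethanol saturated with NaCl.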

lung = assay: In vivo mRNA delivery, IVIS imaging of organs: lung; design: species or system mice; key to Organs with luminescence: lung: strong: Strong meant the luminescence intensity in that organ was relatively high, compared to other organs; weak: Weak meant the luminescence intensity in that organ was relatively low, compared to other organs; conditions: for Organs with luminescence: lung: Table 17, IVIS, 4-6 h after injection, intensity relative to other organs; for Organs with luminescence: lung (weak/strong): Table 14
spleen = assay: In vivo mRNA delivery, IVIS imaging of organs: spleen; design: species or system mice; key to Organs with luminescence: spleen: strong: Strong meant the luminescence intensity in that organ was relatively high, compared to other organs; weak: Weak meant the luminescence intensity in that organ was relatively low, compared to other organs; conditions: for Organs with luminescence: spleen: Table 17, mice, IVIS, 4-6 h after injection, intensity relative to other organs; for Organs with luminescence: spleen (weak/strong): Table 14
[2] = Dimensions (size, PDI) of DNPs co-assembled from IAJDs and Luc-mRNA by DLS; type: physicochemical
Outline: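 Hydrodynamic size and PDI were read by dynamic light scattering at 23 °C, 175° backscatter, 633 nm. Particles formed by fast injection of ethanolic IAJD stock (80 mg/mL) into nucleoside-modified luciferase mRNA (stock 4.0 mg/mL) in 10 mM acetate pH 4.0, 5 s vortex.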

[3] = Table 16, DNPs from IAJD 4 mg/mL and Luc-mRNA 0.10 mg/mL by injection in acetate buffer (10 mM, pH 4.0)
[4] = Table 17, DNPs used in vivo, IAJD 4 mg/mL, Luc-mRNA 0.10 mg/mL, acetate pH 4.0
[5] = Table 15, individual IAJD molecule
[6] = Table 12, DNPs, IAJD 4 mg/mL + Luc-mRNA 0.10 mg/mL, acetate buffer 10 mM pH 4.0
[7] = Table 13, DNPs, IAJD 4 mg/mL + Luc-mRNA 0.10 mg/mL, acetate buffer pH 4.0
[8] = Table 14, DNPs, IAJD 4 mg/mL + Luc-mRNA 0.10 mg/mL, acetate buffer pH 4.0

SMILES | pKa ([1]; individual IAJD molecules) | PDI [2, 3] | Size (d, nm) [2, 3] [nm] | PDI [2, 4] | Size (d, nm) [2, 4] [nm] | pKa [1, 5] | PDI [2, 6] | Size (d, nm) [2, 6] [nm] | PDI [2, 7] | Size (d, nm) [2, 7] [nm] | PDI [2, 8] | Size (d, nm) [2, 8] [nm] | Organs with luminescence: lung (lung; mice) | Organs with luminescence: spleen (spleen) | Organs with luminescence: lung (weak/strong) (lung; imaging 5 h after injection) | Organs with luminescence: spleen (weak/strong) (spleen; imaging 5 h after injection) | Organs with luminescence: lung (weak/strong) (lung; imaging 6 h after injection) | Organs with luminescence: spleen (weak/strong) (spleen; imaging 6 h after injection) | activity in lung (in words) (lung; mice, Luc-mRNA DNPs)
CCCCCCCCCCCOc1cc(COC(=O)CCCN2CCN(CCO)CC2)cc(OCC(CC)CCCC)c1 (stereo not shown) [IAJD 130, 3-((2-Ethylhexyl)oxy)-5-(undecyloxy)benzyl 4-(4-(2-hydroxyethyl)piperazin-1-yl)butanoate] | 6.62 | 0.271 | 172 | 0.271 | 172 |  |  |  |  |  |  |  | Lung (weak), | spleen (strong) |  |  |  |  | 
CCCCCCCCCCCCCOc1cc(COC(=O)CCCN2CCN(C)CC2)cc(OCC(CC)CCCC)c1 (stereo not shown) [IAJD 161, 3-((2-Ethylhexyl)oxy)-5-(tridecyloxy)benzyl 4-(4-methylpiperazin-1-yl)butanoate] | 6.38 | 0.235 | 129 | 0.235 | 129 |  |  |  |  |  |  |  | Lung (weak), | spleen (strong) |  |  |  |  | 
CCCCCCCCCOc1cc(COC(=O)CCCN2CCN(C)CC2)cc(OCCCCCCCCC)c1 [IAJD 77, 3,5-Bis(nonyloxy)benzyl 4-(4-methylpiperazin-1-yl)butanoate] |  |  |  |  |  | 6.4 | 0.267 | 110 | 0.267 | 110 | 0.267 | 110 |  |  | Lung (weak), | spleen (strong) |  |  | 
CCCCCCCCCCCCOCC(COCCCCCCCCCCCC)(COCCCCCCCCCCCC)COC(=O)CCCN1CCN(CCO)CC1 [IAJD 83, 3-(Dodecyloxy)-2,2-bis((dodecyloxy)methyl)propyl 4-(4-(2-hydroxyethyl)piperazin-1-yl)butanoate] |  |  |  |  |  | 6.3 | 0.430 | 143 | 0.430 | 143 | 0.430 | 143 |  |  | Lung (weak), | spleen (strong) |  |  | 
CCCCC(CC)COc1cc(COC(=O)CCCN2CCN(C)CC2)cc(OCC(CC)CCCC)c1 (stereo not shown) [IAJD 76, 3,5-Bis((2-ethylhexyl)oxy)benzyl 4-(4-methylpiperazin-1-yl)butanoate] |  |  |  |  |  | 6.28 | 0.287 | 78 | 0.287 | 78 | 0.287 | 78 |  |  | Lung (weak), | spleen (strong) |  |  | 
CCCCCCCCCCCOc1cc(COC(=O)c2cc(OCCOCCOCCCC(=O)CCCN3CCCCC3)c(OCCOCCOCCOCc3ccccc3)c(OCCOCCOCCOC(=O)CCCN3CCCCC3)c2)cc(OCCCCCCCCCCC)c1 [IAJD 111] | 7.58 | 0.232 | 99 | 0.232 | 99 |  |  |  |  |  |  |  | Lung (strong), | spleen (weak) |  |  |  |  | very high activity to lung
CCCCC(CC)COC(=O)CCCCOc1cc(COC(=O)CCCN2CCN(CCO)CC2)cc(OCCCCC(=O)OCC(CC)CCCC)c1 (stereo not shown) [IAJD 95] |  |  |  |  |  | 6.33 | 0.352 | 105 | 0.352 | 105 | 0.352 | 105 |  |  |  |  | Lung (weak), | spleen (strong) | 

Now from value to molecule, other results behind:

pKa ([1]; individual IAJD molecules) | PDI [2, 3] | Size (d, nm) [2, 3] [nm] | PDI [2, 4] | Size (d, nm) [2, 4] [nm] | pKa [1, 5] | PDI [2, 6] | Size (d, nm) [2, 6] [nm] | PDI [2, 7] | Size (d, nm) [2, 7] [nm] | PDI [2, 8] | Size (d, nm) [2, 8] [nm] | SMILES | Organs with luminescence: lung (lung; mice) | Organs with luminescence: spleen (spleen) | Organs with luminescence: lung (weak/strong) (lung; imaging 5 h after injection) | Organs with luminescence: spleen (weak/strong) (spleen; imaging 5 h after injection) | Organs with luminescence: lung (weak/strong) (lung; imaging 6 h after injection) | Organs with luminescence: spleen (weak/strong) (spleen; imaging 6 h after injection) | activity in lung (in words) (lung; mice, Luc-mRNA DNPs)
6.64 | 0.300 | 255 | 0.300 | 255 |  |  |  |  |  |  |  | CCCCCCCCCCCCCCOc1cc(COC(=O)CCCN2CCN(CCO)CC2)cc(OCCCCCCCCCCC)c1 [IAJD 125, 3-(Tetradecyloxy)-5-(undecyloxy)benzyl 4-(4-(2-hydroxyethyl)piperazin-1-yl)butanoate] | Lung (weak), | spleen (strong) |  |  |  |  | 
6.33 | 0.270 | 169 | 0.270 | 169 |  |  |  |  |  |  |  | CCCCCCCCCCCCCCCOc1cc(COC(=O)CCCN2CCN(C)CC2)cc(OCCCCCCCCCCCC)c1 [IAJD 143, 3-(Dodecyloxy)-5-(pentadecyloxy)benzyl 4-(4-methylpiperazin-1-yl)butanoate] | Lung (strong), | spleen (strong) |  |  |  |  | 
6.03 | 0.203 | 235 | 0.203 | 235 |  |  |  |  |  |  |  | CCCCCCCCCCCCCCOc1cc(COC(=O)CCCN2CCN(CCO)CC2)cc(OCCCCCCCCCCCCC)c1 [IAJD 172, 3-(Tetradecyloxy)-5-(tridecyloxy)benzyl 4-(4-(2-hydroxyethyl)piperazin-1-yl)butanoate] | Lung (weak), | spleen (strong) |  |  |  |  | 
6.69 | 0.293 | 230 | 0.293 | 230 |  |  |  |  |  |  |  | CCCCCCCCCCCCCCCOc1cc(COC(=O)CCCN2CCN(CCO)CC2)cc(OCCCCCCCCCC)c1 [IAJD 142, 3-(Decyloxy)-5-(pentadecyloxy)benzyl 4-(4-(2-hydroxyethyl)piperazin-1-yl)butanoate] | Lung (weak), | spleen (strong) |  |  |  |  | 
 |  |  | 0.279 | 146 | 6.42 | 0.279 | 146 | 0.279 | 146 | 0.279 | 146 | CCCCCCCCCCCCCCCCCCOc1cc(COC(=O)CCCN2CCN(C)CC2)cc(OCCCCCCCCCCCC)c1 [IAJD 107, 3-(Dodecyloxy)-5-(octadecyloxy)benzyl 4-(4-methylpiperazin-1-yl)butanoate] | Lung (weak), | spleen (strong) |  |  | Lung (weak), | spleen (strong) | 
6.48 | 0.407 | 429 | 0.407 | 429 |  |  |  |  |  |  |  | CCCCCCCCCCCCCCCCCCOc1cc(COC(=O)CCCN2CCN(CCO)CC2)cc(OCCCCCCCCCCCCCCC)c1 [IAJD 154, 3-(Octadecyloxy)-5-(pentadecyloxy)benzyl 4-(4-(2-hydroxyethyl)piperazin-1-yl)butanoate] | Lung (weak), | spleen (strong) |  |  |  |  | 
6.28 | 0.306 | 194 | 0.306 | 194 |  |  |  |  |  |  |  | CCCCCCCCCCCCCCCOc1cc(COC(=O)CCCN2CCN(C)CC2)cc(OCCCCCCCCCCCCC)c1 [IAJD 145, 3-(pentadecyloxy)-5-(tridecyloxy)benzyl 4-(4-methylpiperazin-1-yl)butanoate] | Lung (strong), | spleen (strong) |  |  |  |  | 
 |  |  | 0.275 | 105 | 6.38 | 0.275 | 105 | 0.275 | 105 | 0.275 | 105 | CCCCCCCCCCCCCCCCOc1cc(COC(=O)CCCN2CCN(C)CC2)cc(OCCCCCCCCCCCC)c1 [IAJD 106, 3-(Dodecyloxy)-5-(hexadecyloxy)benzyl 4-(4-methylpiperazin-1-yl)butanoate] | Lung (weak), | spleen (strong) |  |  | Lung (weak), | spleen (strong) | 
6.65 | 0.454 | 285 | 0.454 | 285 |  |  |  |  |  |  |  | CCCCCCCCCCCCCCCCOc1cc(COC(=O)CCCN2CCN(CCO)CC2)cc(OCCCCCCCCCCCCCCC)c1 [IAJD 150, 3-(Hexadecyloxy)-5-(pentadecyloxy)benzyl 4-(4-(2-hydroxyethyl)piperazin-1-yl)butanoate] | Lung (weak), | spleen (strong) |  |  |  |  | 
 |  |  |  |  | 6.32 | 0.317 | 180 | 0.317 | 180 | 0.317 | 180 | CCCCCCCCCCCCCCOc1cc(COC(=O)CCCN2CCN(C)CC2)cc(OCCCCCCCCCCCCCC)c1 [IAJD 74, 3,5-Bis(tetradecyloxy)benzyl 4-(4-methylpiperazin-1-yl)butanoate] |  |  | Lung (weak), | spleen (strong) |  |  | 
